Measurements reported in PMC8659069, “Optimization of 4-Anilinoquinolines as Dengue Virus Inhibitors” (Molecules, 2021).
pEC50: −log10 of the molar value. Where two headings read alike, the source gives them in different places.

What was measured:
[1] = test system: DENV; set-up: method as in PMID 28240606, PMID 22448770, PMID 26039671, PMID 19223625, PMID 32631507; settings: serotype 2; erlotinib in Huh7 (Figure 2); ref [14],[29],[30],[31],[32],[33]; read-out: DENV EC50 (previously reported); cited from earlier work
[2] = in vitro; settings: human
[3] = test system: VEEV (TC-83); experiment: microbe, parasite or virus in culture; type: cell-based, Venezuelan Equine Encephalitis virus; settings: for pEC50: read-out: VEEV Inhibition EC50; for EC90: read-out: VEEV Inhibition EC90
[4] = in vitro; settings: human; remark: listed apart in the source
[5] = in vitro; settings: African green monkey
[6] = test system: DENV2; experiment: microbe, parasite or virus in culture; type: cell-based, dengue virus (DENV2, New Guinea C strain); settings: for pEC50: read-out: DENV Inhibition EC50; for EC90: read-out: DENV Inhibition EC90
[7] = Venezuelan equine encephalitis virus, U-87 MG, 18 h
[8] = Dengue virus, DENV2, Huh-7, 48 h

Row | Compound | CC50 [4] | pEC50 [6, 8] | also measured
1 | CC(C)(C)Oc1cccc2nc(N)nc(N)c12 [Compound 1] |  |  | pEC50 [1]: 8.55
2 | Clc1ccc(-c2ccc(-c3nc(NCc4cccnc4)nc4ccccc34)s2)cc1 [Compound 2] |  |  | pEC50 [1]: 7.15
3 | COc1cc(Nc2c(C#N)cnc3ccc(I)cc23)cc(OC)c1OC [Compound 3] |  |  | pEC50 [1]: 7.10
4 | COc1cccc(Nc2ccnc3ccc(C(F)(F)F)cc23)c1 [Compound 4] | > 10 µM | 6.09 | CC50 [2]: > 10 µM; pEC50 [3, 7]: < 5.00; EC90 [3, 7]: > 10 µM; CC50 [5]: > 10 µM; EC90 [6, 8]: 1.5 µM
5 | Oc1cccc(Nc2ccnc3ccc(C(F)(F)F)cc23)c1 [Compound 5] | > 10 µM | 5.57 | 
6 | O=[N+]([O-])c1cccc(Nc2ccnc3ccc(C(F)(F)F)cc23)c1 [Compound 6] | > 10 µM | < 5.00 | 
7 | Nc1cccc(Nc2ccnc3ccc(C(F)(F)F)cc23)c1 [Compound 7] | > 10 µM | 5.23 | 
8 | CNc1cccc(Nc2ccnc3ccc(C(F)(F)F)cc23)c1 [Compound 8] | > 10 µM | 5.05 | 
9 | CN(C)c1cccc(Nc2ccnc3ccc(C(F)(F)F)cc23)c1 [Compound 9] | > 10 µM | 5.64 | 
10 | OCc1cccc(Nc2ccnc3ccc(C(F)(F)F)cc23)c1 [Compound 10] | > 10 µM | 5.18 | 
11 | COc1cccc(Nc2ccnc3ccc(Br)cc23)c1 [Compound 11] | > 10 µM | 6.08 | 
12 | Oc1cccc(Nc2ccnc3ccc(Br)cc23)c1 [Compound 12, 3-((6-bromoquinolin-4-yl)amino)phenol] | > 10 µM | 6.20 | CC50 [2]: > 10 µM; pEC50 [3, 7]: 5.00; EC90 [3, 7]: > 10 µM; melting point: > 300 °C; CC50 [5]: > 10 µM; EC90 [6, 8]: 3.2 µM
13 | COc1cccc(Nc2ccnc3ccccc23)c1 [Compound 13] | > 10 µM | 5.60 | 
14 | Oc1cccc(Nc2ccnc3ccccc23)c1 [Compound 14] | > 10 µM | < 5.00 | 
15 | COc1cccc(Nc2ccnc3ccc(OC)cc23)c1 [Compound 15] | > 10 µM | 5.36 | 
16 | COc1ccc2nccc(Nc3cccc(O)c3)c2c1 [Compound 16] | > 10 µM | < 5.00 | 
17 | COc1cccc(Nc2ccnc3ccc(S(C)(=O)=O)cc23)c1 [Compound 17] | > 10 µM | < 5.00 | 
18 | CS(=O)(=O)c1ccc2nccc(Nc3cccc(O)c3)c2c1 [Compound 18] | > 10 µM | < 5.00 | 
19 | O=[N+]([O-])c1cccc(Nc2ccnc3ccc(Br)cc23)c1 [Compound 19] | > 10 µM | < 5.00 | 

Row | Compound | CC50 [4] | pEC50 [6, 8] | also measured
20 | Nc1cccc(Nc2ccnc3ccc(Br)cc23)c1 [Compound 20] | > 10 µM | < 5.00 | 
21 | CNc1cccc(Nc2ccnc3ccc(Br)cc23)c1 [Compound 21, N^1-(6-bromoquinolin-4-yl)-N^3-methylbenzene-1,3-diamine] |  | 6.62 | reduction in potency against VEEV relative to DENV [3]: 4-8 fold; pEC50 [3, 7]: 5.99; EC90 [3, 7]: 10.7 µM; pEC50 [3]: 6.00; EC90 [3]: > 10 µM; CC50 [5]: > 10 µM; selectivity index window (CC50/EC50, DENV, Huh7) [6]: 22 fold; EC90 [6, 8]: 0.69 µM
22 | CN(C)c1cccc(Nc2ccnc3ccc(Br)cc23)c1 [Compound 22] | > 10 µM | < 5.00 | 
23 | OCc1cccc(Nc2ccnc3ccc(Br)cc23)c1 [Compound 23] | > 10 µM | 5.43 | 
24 | OCc1ccccc1Nc1ccnc2ccc(Br)cc12 [Compound 24] | > 10 µM | 5.15 | 
25 | FS(F)(F)(F)(F)c1cccc(Nc2ccnc3ccc(Br)cc23)c1 [Compound 25] | > 10 µM | 5.82 | 
26 | CC(C)(C)Oc1cccc(Nc2ccnc3ccc(Br)cc23)c1 [Compound 26] | 9.2 µM | 5.64 | 
27 | CC(C)(C)c1cccc(Nc2ccnc3ccc(Br)cc23)c1 [Compound 27] | 6 µM | 6.03 | 
28 | Brc1ccc2nccc(Nc3ccc4c(c3)OCO4)c2c1 [Compound 28] | 8.6 µM | 5.77 | 
29 | Brc1ccc2nccc(Nc3ccc4c(c3)COC4)c2c1 [Compound 29] | > 10 µM | < 5.00 | 
30 | Brc1ccc2nccc(Nc3cccc4c3OCO4)c2c1 [Compound 30] | > 10 µM | < 5.00 | 
31 | Brc1ccc2nccc(Nc3cccc4c3COC4)c2c1 [Compound 31] | > 10 µM | < 5.00 | 
32 | Fc1ccc2c(c1Nc1ccnc3ccc(Br)cc13)OCO2 [Compound 32] |  | 5.72 | CC50 at 48 h [4]: > 10 µM
33 | COc1cccc(Nc2ccnc3ccc(Br)cc23)c1OC [Compound 33] |  | 5.11 | CC50 at 48 h [4]: > 10 µM
34 | FC1(F)Oc2cccc(Nc3ccnc4ccc(Br)cc34)c2O1 [Compound 34] | > 10 µM | 5.15 | 
35 | Brc1ccc2nccc(Nc3cccc4c3CCO4)c2c1 [Compound 35] | > 10 µM | 6.02 | 
36 | Brc1ccc2nccc(Nc3cccc4c3OCC4)c2c1 [Compound 36] |  | 5.24 | CC50 at 48 h [4]: > 10 µM
37 | Brc1ccc2nccc(Nc3cccc4cnoc34)c2c1 [Compound 39] |  | < 5.00 | CC50 at 48 h [4]: > 10 µM
38 | Brc1ccc2nccc(Nc3cccc4oncc34)c2c1 [Compound 40] |  | < 5.00 | CC50 at 48 h [4]: > 10 µM

Row | Compound | CC50 [4] | pEC50 [6, 8] | also measured
39 | Brc1ccc2nccc(Nc3cccc4ncoc34)c2c1 [Compound 41] | > 10 µM | 5.49 | 
40 | Brc1ccc2nccc(Nc3cccc4scnc34)c2c1 [Compound 42] | > 10 µM | < 5.00 | 
41 | Brc1ccc2nccc(Nc3cccc4sccc34)c2c1 [Compound 43] | > 10 µM | 5.54 | 
42 | Brc1ccc2nccc(Nc3cccc4nonc34)c2c1 [Compound 44] |  | 5.04 | CC50 at 48 h [4]: > 10 µM
43 | Brc1ccc2nccc(Nc3cccc4nsnc34)c2c1 [Compound 45] |  | 5.24 | CC50 at 48 h [4]: > 10 µM
44 | Cn1nnc2c(Nc3ccnc4ccc(Br)cc34)cccc21 [Compound 46] |  | ~5.30 | CC50 at 48 h [4]: > 10 µM; pEC50 [6]: 5.26
45 | Cn1ncc2c(Nc3ccnc4ccc(Br)cc34)cccc21 [Compound 47] |  | ~5.30 | CC50 at 48 h [4]: > 10 µM; pEC50 [6]: 5.27
46 | Brc1ccc2nccc(Nc3cccc4[nH]ncc34)c2c1 [Compound 48] |  | 5.68 | CC50 at 48 h [4]: > 10 µM
47 | Brc1ccc2nccc(Nc3ccc4cn[nH]c4c3)c2c1 [Compound 49] | > 10 µM | 5.74 | 
48 | Fc1cc2cn[nH]c2cc1Nc1ccnc2ccc(Br)cc12 [Compound 50, 6-bromo-N-(5-fluoro-1H-indazol-6-yl)quinolin-4-amine] | > 10 µM | 6.16 | CC50 [2]: > 10 µM; reduction in potency against VEEV relative to DENV [3]: 4-8 fold; pEC50 [3, 7]: 5.64; EC90 [3, 7]: 9.6 µM; CC50 [5]: > 10 µM; EC90 [6, 8]: 3.98 µM; EC90 [6]: 4 µM
49 | Brc1ccc2nccc(Nc3ccc4[nH]ncc4c3)c2c1 [Compound 51] |  | 5.92 | CC50 at 48 h [4]: > 10 µM
50 | O=C1NCc2ccc(Nc3ccnc4ccc(Br)cc34)cc21 [Compound 52, 6-((6-bromoquinolin-4-yl)amino)isoindolin-1-one] |  | 6.19 | CC50 [2]: > 10 µM; reduction in potency against VEEV relative to DENV [3]: 4-8 fold; pEC50 [3, 7]: 5.44; EC90 [3, 7]: > 10 µM; CC50 at 48 h [4]: > 10 µM; CC50 [5]: > 10 µM; EC90 [6, 8]: 1.51 µM; EC90 [6]: 1.5 µM
51 | O=c1[nH]c2ccc(Nc3ccnc4ccc(Br)cc34)cc2[nH]1 [Compound 53] |  | < 5.00 | CC50 at 48 h [4]: > 10 µM
52 | O=c1[nH]c2cc(Nc3ccnc4ccc(Br)cc34)ccc2o1 [Compound 54] | > 10 µM | < 5.00 | 
53 | Cn1c(=O)[nH]c2cc(Nc3ccnc4ccc(Br)cc34)ccc21 [Compound 55] |  | 5.15 | CC50 at 48 h [4]: > 10 µM
54 | O=S1(=O)Cc2ccc(Nc3ccnc4ccc(Br)cc34)cc2C1 [Compound 56] |  | 5.20 | CC50 at 48 h [4]: > 10 µM
55 | C#Cc1cccc(Nc2ncnc3cc(OCCOC)c(OCCOC)cc23)c1 [Erlotinib, erlotinib] |  |  | pEC50 [1]: 5.19
56 | CCN(CC)CCNC(=O)c1c(C)[nH]c(/C=C2\C(=O)Nc3ccc(F)cc32)c1C [Sunitinib, sunitinib, reference compound] | > 10 µM | 5.96 | CC50 [2]: > 10 µM; pEC50 [3, 7]: 5.36; EC90 [3, 7]: > 10 µM; CC50 [5]: > 10 µM; EC90 [6, 8]: > 10 µM
